Measurements published in patent publication US11840533B2, “Pyridinone-based epigenetic modifiers and uses thereof” (THE BOARD OF TRUSTEES OF THE UNIVERSITY OF ILLINOIS, priority 2017, dated 2023).

How the values were obtained:
BET family proteins = assay: BROMOscan panel of bromodomain proteins; type: binding; details: FIG. 6
Source text: (§1) BROMOscan is a bromodomain inhibitor binding platform provided by DiscoverX that measures the interactions between compounds and a panel of bromodomain proteins.

[1] = test system: fulvestrant-resistant MCF7:5C-FR cells; assay: Fulvestrant-resistant breast cancer cell viability (cell proliferation) assay; type: cell-based
How it was run: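 Cells were treated the day after seeding with compounds at 3 nM to 10 uM for 120 h, with 0.1% DMSO vehicle and 1 uM JQ1 as positive control. Hoechst 33342-stained (5 μg/ml, 90 min, 37 C) nuclei were imaged and counted, and cell numbers normalized to vehicle.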

[2] = test system: 3D spheroids of fulvestrant-resistant MCF-7:CFR; assay: Growth of 3D spheroids of fulvestrant-resistant MCF-7:CFR; type: cell-based; details: FIG. 11; vs JQ1 and AZD-5153
BRD3(2) = BRD3(2) (Homo sapiens (Human), UniProt Q15059); assay: BROMOscan; type: binding
Chain of BRD3(2) (Q15059 306-415): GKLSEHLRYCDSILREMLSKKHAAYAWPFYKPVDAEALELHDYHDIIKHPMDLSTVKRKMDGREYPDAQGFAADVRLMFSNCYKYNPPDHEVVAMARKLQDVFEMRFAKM
Source text: as §1

BRDT(1) = BRDT(1) (Homo sapiens (Human), UniProt Q58F21); assay: BROMOscan; type: binding
Source text: as §1

BRD1 = BRD1 (Homo sapiens (Human), UniProt O95696); assay: BROMOscan; type: binding
Chain of BRD1 (O95696 whole entry): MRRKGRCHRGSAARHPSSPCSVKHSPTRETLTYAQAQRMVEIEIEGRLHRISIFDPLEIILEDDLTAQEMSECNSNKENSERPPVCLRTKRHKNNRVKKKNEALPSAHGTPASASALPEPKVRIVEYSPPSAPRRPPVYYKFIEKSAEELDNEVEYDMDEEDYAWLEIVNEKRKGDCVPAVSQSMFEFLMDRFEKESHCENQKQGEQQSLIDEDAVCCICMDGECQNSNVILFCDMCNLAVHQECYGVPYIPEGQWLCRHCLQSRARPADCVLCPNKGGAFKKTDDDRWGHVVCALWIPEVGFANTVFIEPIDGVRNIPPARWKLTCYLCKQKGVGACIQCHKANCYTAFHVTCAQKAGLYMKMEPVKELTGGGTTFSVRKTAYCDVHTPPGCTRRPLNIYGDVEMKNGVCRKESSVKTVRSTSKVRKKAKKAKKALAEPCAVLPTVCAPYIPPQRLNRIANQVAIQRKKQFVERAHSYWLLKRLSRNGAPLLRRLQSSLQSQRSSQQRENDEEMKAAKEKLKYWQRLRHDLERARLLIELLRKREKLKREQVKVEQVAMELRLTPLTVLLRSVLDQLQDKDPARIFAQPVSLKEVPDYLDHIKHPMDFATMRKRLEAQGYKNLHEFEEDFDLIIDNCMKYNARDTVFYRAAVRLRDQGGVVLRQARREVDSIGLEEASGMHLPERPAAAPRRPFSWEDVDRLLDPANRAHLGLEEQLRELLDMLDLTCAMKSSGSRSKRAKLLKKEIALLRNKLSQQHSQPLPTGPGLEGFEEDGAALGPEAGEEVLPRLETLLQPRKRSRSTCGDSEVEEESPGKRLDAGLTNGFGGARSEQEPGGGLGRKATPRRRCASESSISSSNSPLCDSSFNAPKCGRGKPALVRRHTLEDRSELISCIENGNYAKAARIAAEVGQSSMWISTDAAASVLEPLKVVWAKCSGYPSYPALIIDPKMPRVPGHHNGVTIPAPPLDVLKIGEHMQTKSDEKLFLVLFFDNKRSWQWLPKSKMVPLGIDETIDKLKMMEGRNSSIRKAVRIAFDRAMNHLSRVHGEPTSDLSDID
Source text: as §1

BRD3(1) = BRD3(1) (Homo sapiens (Human), UniProt Q15059); assay: BROMOscan; type: binding
Chain of BRD3(1) (Q15059 34-140): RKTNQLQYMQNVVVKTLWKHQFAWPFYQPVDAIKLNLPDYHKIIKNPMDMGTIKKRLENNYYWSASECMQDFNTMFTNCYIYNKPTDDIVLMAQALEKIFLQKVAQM
Source text: as §1

TAF1(2) = TAF1(2) (Homo sapiens (Human), UniProt P21675); assay: BROMOscan; type: binding
Chain of TAF1(2) (P21675 1519-1628): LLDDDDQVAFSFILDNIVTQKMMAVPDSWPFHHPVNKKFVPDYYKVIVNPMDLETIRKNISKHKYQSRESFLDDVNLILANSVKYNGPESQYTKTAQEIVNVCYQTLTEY
Source text: as §1

CECR2 = CECR2 (Homo sapiens (Human), UniProt Q9BXF3); assay: BROMOscan; type: binding
Source text: as §1

BRD2(1) = BRD2(1) (Homo sapiens (Human), UniProt P25440); assay: BROMOscan; type: binding
Chain of BRD2(1) (P25440 74-180): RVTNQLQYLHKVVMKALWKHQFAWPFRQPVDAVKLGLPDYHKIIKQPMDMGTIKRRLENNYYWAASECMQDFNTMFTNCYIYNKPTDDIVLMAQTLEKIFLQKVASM
Source text: as §1

BRPF1 = BRPF1 (Homo sapiens (Human), UniProt P55201); assay: BROMOscan; type: binding
Chain of BRPF1 (P55201 whole entry): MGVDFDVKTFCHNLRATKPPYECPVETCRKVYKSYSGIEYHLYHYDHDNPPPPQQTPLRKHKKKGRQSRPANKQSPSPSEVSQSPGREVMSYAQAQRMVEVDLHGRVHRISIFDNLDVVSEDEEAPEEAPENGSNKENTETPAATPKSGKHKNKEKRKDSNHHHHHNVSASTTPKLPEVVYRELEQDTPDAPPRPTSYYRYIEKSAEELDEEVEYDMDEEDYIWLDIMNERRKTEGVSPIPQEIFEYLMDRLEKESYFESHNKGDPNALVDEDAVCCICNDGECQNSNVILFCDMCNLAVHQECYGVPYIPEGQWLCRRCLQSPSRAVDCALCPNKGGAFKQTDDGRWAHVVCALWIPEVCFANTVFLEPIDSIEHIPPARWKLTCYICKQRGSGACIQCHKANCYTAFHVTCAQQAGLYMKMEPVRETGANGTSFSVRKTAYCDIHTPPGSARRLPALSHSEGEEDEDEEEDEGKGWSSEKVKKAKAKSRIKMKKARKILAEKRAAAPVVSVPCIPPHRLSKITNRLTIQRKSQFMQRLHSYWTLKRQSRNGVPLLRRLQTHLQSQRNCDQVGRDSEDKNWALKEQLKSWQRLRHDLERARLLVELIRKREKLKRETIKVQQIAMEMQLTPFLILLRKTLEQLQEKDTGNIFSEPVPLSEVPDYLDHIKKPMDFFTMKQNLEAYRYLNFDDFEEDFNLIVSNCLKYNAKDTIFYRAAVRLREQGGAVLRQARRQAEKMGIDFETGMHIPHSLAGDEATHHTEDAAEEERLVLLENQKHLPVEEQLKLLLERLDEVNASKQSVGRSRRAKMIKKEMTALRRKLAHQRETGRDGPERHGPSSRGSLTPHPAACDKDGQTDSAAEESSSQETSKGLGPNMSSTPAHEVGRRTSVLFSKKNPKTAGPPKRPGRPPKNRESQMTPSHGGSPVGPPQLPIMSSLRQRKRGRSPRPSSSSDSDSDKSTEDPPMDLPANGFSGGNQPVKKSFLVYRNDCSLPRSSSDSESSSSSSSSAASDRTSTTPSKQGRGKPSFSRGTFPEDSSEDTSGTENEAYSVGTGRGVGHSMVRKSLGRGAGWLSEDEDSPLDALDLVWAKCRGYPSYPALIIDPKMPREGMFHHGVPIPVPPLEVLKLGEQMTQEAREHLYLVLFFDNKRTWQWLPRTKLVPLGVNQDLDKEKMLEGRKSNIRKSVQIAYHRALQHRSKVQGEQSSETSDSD
Source text: as §1

TRIM24(Bromo.) = TRIM24(Bromo.) (Homo sapiens (Human), UniProt O15164); assay: BROMOscan; type: binding
Chain of TRIM24(Bromo.) (O15164 899-1004): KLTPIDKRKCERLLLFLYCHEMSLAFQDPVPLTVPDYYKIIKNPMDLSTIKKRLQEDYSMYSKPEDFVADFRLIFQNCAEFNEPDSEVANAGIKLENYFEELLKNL
Source text: as §1

BRD3(1, 2) = BRD3(1, 2) (Homo sapiens (Human), UniProt Q15059); assay: BROMOscan; type: binding
Chain of BRD3(1, 2) (Q15059 24-416): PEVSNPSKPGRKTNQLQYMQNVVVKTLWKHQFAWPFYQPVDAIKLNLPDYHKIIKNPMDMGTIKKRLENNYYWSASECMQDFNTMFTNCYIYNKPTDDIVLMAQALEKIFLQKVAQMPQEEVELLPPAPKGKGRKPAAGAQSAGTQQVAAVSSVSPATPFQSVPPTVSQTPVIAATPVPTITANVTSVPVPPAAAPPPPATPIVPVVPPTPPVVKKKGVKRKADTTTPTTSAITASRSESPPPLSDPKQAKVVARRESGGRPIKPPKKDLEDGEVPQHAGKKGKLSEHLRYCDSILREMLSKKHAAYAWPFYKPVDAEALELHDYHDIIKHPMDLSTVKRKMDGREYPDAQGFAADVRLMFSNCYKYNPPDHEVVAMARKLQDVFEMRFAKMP
Source text: as §1

BRD9 = BRD9 (Homo sapiens (Human), UniProt Q9H8M2); assay: BROMOscan; type: binding
Chain of BRD9 (Q9H8M2 whole entry): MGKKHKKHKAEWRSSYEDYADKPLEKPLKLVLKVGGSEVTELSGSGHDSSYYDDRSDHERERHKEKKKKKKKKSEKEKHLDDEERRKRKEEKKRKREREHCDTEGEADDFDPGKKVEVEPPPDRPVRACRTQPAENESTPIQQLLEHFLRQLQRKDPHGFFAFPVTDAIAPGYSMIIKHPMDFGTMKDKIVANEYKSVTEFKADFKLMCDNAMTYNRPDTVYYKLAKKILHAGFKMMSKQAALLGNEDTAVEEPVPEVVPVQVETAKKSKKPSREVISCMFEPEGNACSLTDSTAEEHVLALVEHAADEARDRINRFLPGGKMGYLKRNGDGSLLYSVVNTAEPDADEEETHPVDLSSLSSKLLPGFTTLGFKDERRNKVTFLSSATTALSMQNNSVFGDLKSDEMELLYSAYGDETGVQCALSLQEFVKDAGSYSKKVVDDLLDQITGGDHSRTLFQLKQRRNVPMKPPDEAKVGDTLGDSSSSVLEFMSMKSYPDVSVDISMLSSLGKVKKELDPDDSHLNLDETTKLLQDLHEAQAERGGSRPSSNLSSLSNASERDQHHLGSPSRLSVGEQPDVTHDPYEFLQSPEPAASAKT
Source text: as §1

PBRM1(5) = PBRM1(5) (Homo sapiens (Human), UniProt Q86U86); assay: BROMOscan; type: binding
Chain of PBRM1(5) (Q86U86 653-763): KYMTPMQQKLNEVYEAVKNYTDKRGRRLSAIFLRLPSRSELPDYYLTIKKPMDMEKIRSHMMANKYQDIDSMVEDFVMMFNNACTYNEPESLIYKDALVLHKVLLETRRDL
Source text: as §1

CREBBP = CREBBP (Homo sapiens (Human), UniProt Q92793); assay: BROMOscan; type: binding
Source text: as §1

BRD8(1) = BRD8(1) (Homo sapiens (Human), UniProt Q9H0E9); assay: BROMOscan; type: binding
Chain of BRD8(1) (Q9H0E9 706-811): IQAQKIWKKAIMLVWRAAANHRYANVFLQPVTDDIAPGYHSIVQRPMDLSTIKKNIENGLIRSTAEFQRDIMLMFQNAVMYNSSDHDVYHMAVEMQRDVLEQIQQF
Source text: as §1

TAF1L(2) = TAF1L(2) (Homo sapiens (Human), UniProt Q8IZX4); assay: BROMOscan; type: binding
Chain of TAF1L(2) (Q8IZX4 1517-1626): as the sequence (P21675 1519-1628) above, with V46M, M51V, V102I, L107I counted along it
Source text: as §1

EP300 = EP300 (Homo sapiens (Human), UniProt Q09472); assay: BROMOscan; type: binding
Source text: as §1

BRDT(1, 2) = BRDT(1, 2) (Homo sapiens (Human), UniProt Q58F21); assay: BROMOscan; type: binding
Source text: as §1

BRD2(1, 2) = BRD2(1, 2) (Homo sapiens (Human), UniProt P25440); assay: BROMOscan; type: binding
Chain of BRD2(1, 2) (P25440 71-455): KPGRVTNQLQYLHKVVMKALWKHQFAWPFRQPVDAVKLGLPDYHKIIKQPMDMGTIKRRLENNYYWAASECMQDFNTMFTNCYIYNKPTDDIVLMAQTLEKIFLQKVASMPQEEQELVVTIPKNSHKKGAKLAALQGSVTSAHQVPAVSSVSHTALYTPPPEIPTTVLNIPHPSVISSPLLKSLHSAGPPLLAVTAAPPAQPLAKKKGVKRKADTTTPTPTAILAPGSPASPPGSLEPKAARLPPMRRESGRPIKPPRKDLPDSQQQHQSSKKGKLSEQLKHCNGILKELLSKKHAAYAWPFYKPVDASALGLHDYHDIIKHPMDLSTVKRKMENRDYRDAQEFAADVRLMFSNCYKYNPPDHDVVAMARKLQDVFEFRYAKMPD
Source text: as §1

BAZ2A = BAZ2A (Homo sapiens (Human), UniProt Q9UIF9); assay: BROMOscan; type: binding
Source text: as §1

BRDT(2) = BRDT(2) (Homo sapiens (Human), UniProt Q58F21); assay: BROMOscan; type: binding
Source text: as §1

BRD2(2) = BRD2(2) (Homo sapiens (Human), UniProt P25440); assay: BROMOscan; type: binding
Chain of BRD2(2) (P25440 344-453): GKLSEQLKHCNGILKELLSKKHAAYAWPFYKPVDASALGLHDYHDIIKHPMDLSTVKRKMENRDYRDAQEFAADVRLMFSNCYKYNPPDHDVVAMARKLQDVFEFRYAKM
Source text: as §1

In the case of CCS(=O)(=O)Nc1cc(-c2cn(C)c3c(=O)[nH]ccc23)cc2c1ccn2C(C)(c1ccccn1)c1ccccn1 [Compound 70], the “binding affinity for BET family” value (BET family proteins) is reported as “subnanomolar potency”, the IC50 ([1]; 120 h, growth inhibition in fulvestrant-resistant MCF-7:CFR cells, 120 hrs) is reported as 0.9 nM and the “growth inhibition in comparison with clinical benchmark BET inhibitors” value ([1]; FIG. 10, vs BMS-98615, ABBV-075, AVR-771, AZD-5153, I-BET-762 and JQ1) is reported as “superior potency”. The “efficacy in inhibiting the growth of 3D spheroids” value [2] was “more efficacious than JQ1 and AZD-5153”, the Kd (BRD3(2)) was 0.61 nM and the Kd (BRDT(1)) was 0.14 nM. It also gave a Kd (BRD1) of 7700 nM, a Kd (BRD3(1)) of 0.34 nM and a Kd (TAF1(2)) of 9.1 nM. It also gave a Kd (CECR2) of 6000 nM, a Kd (BRD2(1)) of 0.27 nM and a Kd (BRPF1) of 360 nM. The Kd (TRIM24(Bromo.)) was 4400 nM, the Kd (BRD3(1, 2)) was 0.27 nM and the Kd (BRD9) was 3500 nM. The Kd (PBRM1(5)) was 6100 nM, the Kd (CREBBP) was 110 nM and the Kd (BRD8(1)) was 4900 nM. It also gave a Kd (TAF1L(2)) of 44 nM, a Kd (EP300) of 37 nM and a Kd (BRDT(1, 2)) of 0.23 nM. For the same molecule, the Kd (BRD2(1, 2)) was 0.57 nM, the Kd (BAZ2A) was 3500 nM and the Kd (BRDT(2)) was 1.4 nM. It also gave a Kd (BRD2(2)) of 0.77 nM.
